In article PMC8371902, “Phase 1 study of M2698, a p70S6K/AKT dual inhibitor, in patients with advanced cancer” (Journal of Hematology & Oncology, 2021):

Key:
[1] = tested on: phospho-S6 (pS6) in tumor tissue; test: pS6 in tumor biopsies by immunohistochemistry, PK/PD models; assay type: in vivo, human
Source text: Supplementary Table S7. Parameter estimates for pharmacokinetic/ pharmacodynamic models of pS6 in tumor tissue using dose and area under the curve (AUCT, calculated as dose divided by apparent clearance at time of tissue biopsy) as exposure metrics
log-linear regression model of dose – tumor pS6: y ~ slope *log(Dose)
Emax regression model of AUC – tumor pS6: y ~ (Emax *AUC) / (EC50 + AUC)

[2] = Plasma pharmacokinetics of M2698, non-compartmental; assay type: in vivo, human
Experimental: Plasma PK parameters on days 1 and 15 were calculated using non-compartmental methods.

[3] = day 1 single dose, monotherapy 15 mg, n=3
[4] = day 1 single dose, monotherapy 30 mg, n=3
[5] = day 1 single dose, monotherapy 60 mg, n=6
[6] = day 1 single dose, monotherapy 75 mg, n=4
[7] = day 1 single dose, monotherapy 110 mg, n=3
[8] = day 1 single dose, monotherapy 160 mg, n=5
[9] = day 1 single dose, monotherapy 200 mg, n=3
[10] = day 1 single dose, monotherapy 240 mg, n=9
[11] = day 1 single dose, monotherapy 320 mg, n=7
[12] = day 1 single dose, monotherapy 380 mg, n=4
[13] = day 15, combination with tamoxifen, M2698 80 mg, n=2
[14] = day 15, combination with tamoxifen, M2698 160 mg, n=5
[15] = day 15, combination with tamoxifen, M2698 200 mg, n=6
[16] = day 15, combination with tamoxifen, M2698 240 mg (intermittent regimen), n=4
[17] = day 15, combination with trastuzumab, M2698 80 mg, n=3
[18] = day 15, combination with trastuzumab, M2698 160 mg, n=7

In the case of `NC(=O)c1cccc2c(N[C@H](CN3CCC3)c3ccc(Cl)c(C(F)(F)F)c3)ncnc12` [M2698], the “AUC giving 70% inhibition of pS6 in tumor tissue” value ([1]; Emax model) is reported as 15,174 h.ng/mL, the “AUC giving 80% inhibition of pS6 in tumor tissue” value ([1]; Emax model) is reported as 32,087 h.ng/mL and the “Dose giving 70% inhibition of pS6 in tumor tissue” value ([1]; log-linear regression model) is reported as ~ 160 mg. The “Dose giving 80% inhibition of pS6 in tumor tissue” value ([1]; log-linear regression model) was roughly 240 mg, the “Inhibition of pS6 levels in tumor tissue” value ([1]; paired biopsies, 28 patients) was “dose- and concentration-dependent inhibition” and the “AUC0–24, Geo mean (GeoCV%)” value [2, 3] was 759 (67.2) ng∙h/mL. For the same compound, the “Cmax, GeoMean (GeoCV%)” value [2, 3] was 53.0 (91.1) ng/mL, the “tmax, median (range)” value [2, 3] was 3.08 (2.07–5.00) hours and the “AUC0–24, Geo mean (GeoCV%)” value [2, 4] was 1480 (52.9) ng∙h/mL. The “Cmax, GeoMean (GeoCV%)” value [2, 4] was 87.3 (55.9) ng/mL, the “tmax, median (range)” value [2, 4] was 4.00 (3.97–5.17) hours and the “AUC0–24, Geo mean (GeoCV%)” value [2, 5] was 2730 (36.3) ng∙h/mL. For the same compound, the “Cmax, GeoMean (GeoCV%)” value [2, 5] was 177 (38.3) ng/mL, the “tmax, median (range)” value [2, 5] was 4.08 (2.05–5.00) hours and the “AUC0–24, Geo mean (GeoCV%)” value [2, 6] was 4370 (85.2) ng∙h/mL. The “Cmax, GeoMean (GeoCV%)” value [2, 6] was 269 (114.4) ng/mL, the “tmax, median (range)” value [2, 6] was 4.83 (2.98–9.50) hours and the “AUC0–24, Geo mean (GeoCV%)” value [2, 7] was 4200 (21.0) ng∙h/mL. For the same compound, the “Cmax, GeoMean (GeoCV%)” value [2, 7] was 246 (21.7) ng/mL, the “tmax, median (range)” value [2, 7] was 6.08 (5.98–24.3) hours and the “AUC0–24, Geo mean (GeoCV%)” value [2, 8] was 8650 (49.8) ng∙h/mL. The “Cmax, GeoMean (GeoCV%)” value [2, 8] was 543 (65.3) ng/mL, the “tmax, median (range)” value [2, 8] was 4.05 (2.15–5.23) hours and the “AUC0–24, Geo mean (GeoCV%)” value [2, 9] was 8180 (102.8) ng∙h/mL. For the same compound, the “Cmax, GeoMean (GeoCV%)” value [2, 9] was 472 (110.1) ng/mL, the “tmax, median (range)” value [2, 9] was 4.60 (4.07–5.02) hours and the “AUC0–24, Geo mean (GeoCV%)” value ([2]; day 1 single dose, monotherapy 240 mg, n=8 for AUC) was 9200 (74.5) ng∙h/mL. The “Cmax, GeoMean (GeoCV%)” value [2, 10] was 590 (81.4) ng/mL, the “tmax, median (range)” value [2, 10] was 6.25 (4.00–24.3) hours and the “AUC0–24, Geo mean (GeoCV%)” value ([2]; day 1 single dose, monotherapy 320 mg, n=6 for AUC) was 15200 (104.0) ng∙h/mL. For the same compound, the “Cmax, GeoMean (GeoCV%)” value [2, 11] was 802 (112.0) ng/mL, the “tmax, median (range)” value [2, 11] was 4.73 (4.00–24.1) hours and the “AUC0–24, Geo mean (GeoCV%)” value ([2]; day 1 single dose, monotherapy 380 mg, n=2 for AUC) was 16500 (36.6) ng∙h/mL. The “Cmax, GeoMean (GeoCV%)” value [2, 12] was 1320 (55.0) ng/mL, the “tmax, median (range)” value [2, 12] was 6.28 (4.12–9.52) hours and the “AUC0–τ, Geo mean (GeoCV%)” value [2, 13] was 16,000 (44.7) ng∙h/mL. For the same compound, the “Accumulation ratio (Cmax), Geo mean (GeoCV%)” value (“Accumulation ratio … (GeoCV%)” for short) [2, 13] was 2.31 (20.6), the “Cmax, GeoMean (GeoCV%)” value [2, 13] was 819 (50.9) ng/mL and the “tmax, median (range)” value [2, 13] was 4.5 (4.00–5.00) hours. The “AUC0–τ, Geo mean (GeoCV%)” value [2, 14] was 22,000 (42.9) ng∙h/mL, the “Accumulation ratio … (GeoCV%)” value [2, 14] was 1.98 (26.6) and the “Cmax, GeoMean (GeoCV%)” value [2, 14] was 1270 (48.3) ng/mL. For the same compound, the “tmax, median (range)” value [2, 14] was 3.33 (2.95–5.58) hours, the “AUC0–τ, Geo mean (GeoCV%)” value [2, 15] was 27,000 (29.3) ng∙h/mL and the “Accumulation ratio … (GeoCV%)” value [2, 15] was 3.47 (65.7). For the same compound, the “Cmax, GeoMean (GeoCV%)” value [2, 15] was 1380 (31.3) ng/mL, the “tmax, median (range)” value [2, 15] was 3.98 (3.07–10.0) hours and the “AUC0–τ, Geo mean (GeoCV%)” value [2, 16] was 20,600 (41.7) ng∙h/mL. The “Accumulation ratio … (GeoCV%)” value [2, 16] was 1.7 (40.9), the “Cmax, GeoMean (GeoCV%)” value [2, 16] was 1110 (39.9) ng/mL and the “tmax, median (range)” value [2, 16] was 3.15 (2.13–4.00) hours. For the same compound, the “AUC0–τ, Geo mean (GeoCV%)” value [2, 17] was 7400 (34.3) ng∙h/mL, the “Accumulation ratio … (GeoCV%)” value [2, 17] was 2.00 (26.1) and the “Cmax, GeoMean (GeoCV%)” value [2, 17] was 405 (23.7) ng/mL. For the same compound, the “tmax, median (range)” value [2, 17] was 3.07 (2.03–5.58) hours, the “AUC0–τ, Geo mean (GeoCV%)” value [2, 18] was 47,200 (49.3) ng∙h/mL and the “Accumulation ratio … (GeoCV%)” value [2, 18] was 2.73 (31.5).
